Six compounds from PubChem BioAssay AID1259407 (Chemical Carcinogenesis Research Information System (CCRIS), 2018) can be followed below.

Each structure is given as a SMILES string. The source made the active and inactive calls. No rule for the calls is given here.

The test system of this data set is CCRIS mutagenicity, Ames/micronucleus/aberration tests. Description: CCRIS mutagenicity studies.
[1] abbreviates: Test System: AMES SALMONELLA TYPHIMURIUM, Strain/Indicator: TA98, Metabolic Activation: NONE, Method: STANDARD PLATE.
Where [2] appears, read: Test System: AMES SALMONELLA TYPHIMURIUM, Strain/Indicator: TA100, Metabolic Activation: NONE, Method: STANDARD PLATE.
Where [3] appears, read: Test System: AMES SALMONELLA TYPHIMURIUM, Strain/Indicator: TA98, Metabolic Activation: NONE, Method: PREINCUBATION
The mark [4] stands for this setting: Test System: AMES SALMONELLA TYPHIMURIUM, Strain/Indicator: TA98, Metabolic Activation: RAT, LIVER, S-9, AROCLOR 1254, Method: PREINCUBATION
Setting [5] is: Test System: AMES SALMONELLA TYPHIMURIUM, Strain/Indicator: TA100, Metabolic Activation: NONE, Method: PREINCUBATION
Setting [6] is: Test System: AMES SALMONELLA TYPHIMURIUM, Strain/Indicator: TA100, Metabolic Activation: RAT, LIVER, S-9, AROCLOR 1254, Method: PREINCUBATION

In the case of `FC(F)(Cl)Cl`, the mutagenic call (Test System: AMES SALMONELLA TYPHIMURIUM, Strain/Indicator: TA98, Metabolic Activation: NONE, Method: GAS EXPOSURE) was “inactive; negative”; the mutagenic call (Test System: AMES SALMONELLA TYPHIMURIUM, Strain/Indicator: TA98, Metabolic Activation: RAT LIVER S-9, PHENOBARBITAL AND BETA-NAPHTHOFLAVONE (40%), Method: GAS EXPOSURE) is “inactive; negative”; the mutagenic call (Test System: AMES SALMONELLA TYPHIMURIUM, Strain/Indicator: TA100, Metabolic Activation: NONE, Method: GAS EXPOSURE) is “inactive; negative”; the mutagenic call (Test System: AMES SALMONELLA TYPHIMURIUM, Strain/Indicator: TA100, Metabolic Activation: RAT LIVER S-9, PHENOBARBITAL AND BETA-NAPHTHOFLAVONE (40%), Method: GAS EXPOSURE) is “inactive; negative”; the mutagenic call (Test System: AMES SALMONELLA TYPHIMURIUM, Strain/Indicator: TA1535, Metabolic Activation: NONE, Method: GAS EXPOSURE) is “inactive; negative”; the mutagenic call (Test System: AMES SALMONELLA TYPHIMURIUM, Strain/Indicator: TA1535, Metabolic Activation: RAT LIVER S-9, PHENOBARBITAL AND BETA-NAPHTHOFLAVONE (40%), Method: GAS EXPOSURE) was “inactive; negative”. Besides, the mutagenic call reads like this: (Test System: AMES SALMONELLA TYPHIMURIUM, Strain/Indicator: TA1537, Metabolic Activation: NONE, Method: GAS EXPOSURE) “inactive; negative”; (Test System: AMES SALMONELLA TYPHIMURIUM, Strain/Indicator: TA1537, Metabolic Activation: RAT LIVER S-9, PHENOBARBITAL AND BETA-NAPHTHOFLAVONE (40%), Method: GAS EXPOSURE) “inactive; negative”; (Test System: E.COLI, Strain/Indicator: WP2UVRA, Metabolic Activation: NONE, Method: GAS EXPOSURE) “inactive; negative”; (Test System: E.COLI, Strain/Indicator: WP2UVRA, Metabolic Activation: RAT LIVER S-9, PHENOBARBITAL AND BETA-NAPHTHOFLAVONE (40%), Method: GAS EXPOSURE) “inactive; negative”.
`Cc1cc(Cc2cc(C)cc(C(C)(C)C)c2O)c(O)c(C(C)(C)C)c1`: the mutagenic call by setting is: under setting [1], “inactive; negative”; (Test System: AMES SALMONELLA TYPHIMURIUM, Strain/Indicator: TA98, Metabolic Activation: S-9, Method: STANDARD PLATE) “inactive; negative”; under setting [2], “inactive; negative”; (Test System: AMES SALMONELLA TYPHIMURIUM, Strain/Indicator: TA100, Metabolic Activation: S-9, Method: STANDARD PLATE) “inactive; negative”.
`Nc1c(Br)cc(Br)c2c1C(=O)c1ccccc1C2=O`: the mutagenic call reads like this: (End Point: IN VITRO CHROMOSOMAL ABERRATIONS, Test System: CHO-LB CELLS, Metabolic Activation: NONE) “inactive; negative”; (End Point: IN VITRO CHROMOSOMAL ABERRATIONS, Test System: CHO-LB CELLS, Metabolic Activation: RAT, LIVER, S-9, AROCLOR 1254) “inactive; negative”; (Test System: AMES SALMONELLA TYPHIMURIUM, Strain/Indicator: TA98, Metabolic Activation: HAMSTER, LIVER, S-9, AROCLOR 1254 (10%), Method: PREINCUBATION) “inactive; negative”; (Test System: AMES SALMONELLA TYPHIMURIUM, Strain/Indicator: TA98, Metabolic Activation: HAMSTER, LIVER, S-9, AROCLOR 1254, Method: PREINCUBATION) “inactive; negative”; under setting [3], “active; positive”; (Test System: AMES SALMONELLA TYPHIMURIUM, Strain/Indicator: TA98, Metabolic Activation: RAT, LIVER, S-9, AROCLOR 1254 (10%), Method: PREINCUBATION) “inactive; negative”. The mutagenic call reads like this: under setting [4], “inactive; negative”; (Test System: AMES SALMONELLA TYPHIMURIUM, Strain/Indicator: TA100, Metabolic Activation: HAMSTER, LIVER, S-9, AROCLOR 1254, Method: PREINCUBATION) “inactive; negative”; under setting [5], “inactive; negative”; under setting [6], “inactive; negative”; (Test System: AMES SALMONELLA TYPHIMURIUM, Strain/Indicator: TA1535, Metabolic Activation: HAMSTER, LIVER, S-9, AROCLOR 1254 (10%), Method: PREINCUBATION) “inactive; negative”; (Test System: AMES SALMONELLA TYPHIMURIUM, Strain/Indicator: TA1535, Metabolic Activation: HAMSTER, LIVER, S-9, AROCLOR 1254, Method: PREINCUBATION) “inactive; negative”. For the same compound, the mutagenic call runs as follows: (Test System: AMES SALMONELLA TYPHIMURIUM, Strain/Indicator: TA1535, Metabolic Activation: NONE, Method: PREINCUBATION) “inactive; negative”; (Test System: AMES SALMONELLA TYPHIMURIUM, Strain/Indicator: TA1535, Metabolic Activation: RAT, LIVER, S-9, AROCLOR 1254 (10%), Method: PREINCUBATION) “inactive; negative”; (Test System: AMES SALMONELLA TYPHIMURIUM, Strain/Indicator: TA1535, Metabolic Activation: RAT, LIVER, S-9, AROCLOR 1254, Method: PREINCUBATION) “inactive; negative”; (Test System: AMES SALMONELLA TYPHIMURIUM, Strain/Indicator: TA1537, Metabolic Activation: HAMSTER, LIVER, S-9, AROCLOR 1254, Method: PREINCUBATION) “inactive; negative”; (Test System: AMES SALMONELLA TYPHIMURIUM, Strain/Indicator: TA1537, Metabolic Activation: NONE, Method: PREINCUBATION) “active; positive”; (Test System: AMES SALMONELLA TYPHIMURIUM, Strain/Indicator: TA1537, Metabolic Activation: RAT, LIVER, S-9, AROCLOR 1254, Method: PREINCUBATION) “active; positive”.
In the case of `C=C1C[C@@]23CC[C@H]4[C@@](C)(CCC[C@@]4(C)C(=O)O)[C@@H]2CC[C@@H]1C3`, under “Test System: AMES SALMONELLA TYPHIMURIUM, Strain/Indicator: TM677, Metabolic Activation: RAT, LIVER, S-9, AROCLOR 1254, Method: PREINCUBATION”, the mutagenic call was “inactive; negative”.
With `Cn1cccc1`, the mutagenic call is, setting by setting: under setting [3], “inactive; negative”; under setting [4], “inactive; negative”; under setting [5], “inactive; negative”; under setting [6], “inactive; negative”; (Test System: AMES SALMONELLA TYPHIMURIUM, Strain/Indicator: TA102, Metabolic Activation: NONE, Method: PREINCUBATION) “inactive; negative”; (Test System: AMES SALMONELLA TYPHIMURIUM, Strain/Indicator: TA102, Metabolic Activation: RAT, LIVER, S-9, AROCLOR 1254, Method: PREINCUBATION) “inactive; negative”.
In the case of `NC(=O)c1cc[n+](COC[n+]2ccccc2/C=N/O)cc1`, the mutagenic call is, setting by setting: under setting [1], “inactive; negative”; (Test System: AMES SALMONELLA TYPHIMURIUM, Strain/Indicator: TA98, Metabolic Activation: RAT, LIVER, S-9, Method: STANDARD PLATE) “inactive; negative”; under setting [2], “inactive; negative”; (Test System: AMES SALMONELLA TYPHIMURIUM, Strain/Indicator: TA100, Metabolic Activation: RAT, LIVER, S-9, Method: STANDARD PLATE) “inactive; negative”; (Test System: AMES SALMONELLA TYPHIMURIUM, Strain/Indicator: TA1535, Metabolic Activation: NONE, Method: STANDARD PLATE) “inactive; negative”; (Test System: AMES SALMONELLA TYPHIMURIUM, Strain/Indicator: TA1535, Metabolic Activation: RAT, LIVER, S-9, Method: STANDARD PLATE) “inactive; negative”. For the same compound, the mutagenic call is, setting by setting: (Test System: AMES SALMONELLA TYPHIMURIUM, Strain/Indicator: TA1537, Metabolic Activation: NONE, Method: STANDARD PLATE) “inactive; negative”; (Test System: AMES SALMONELLA TYPHIMURIUM, Strain/Indicator: TA1537, Metabolic Activation: RAT, LIVER, S-9, Method: STANDARD PLATE) “inactive; negative”; (Test System: AMES SALMONELLA TYPHIMURIUM, Strain/Indicator: TA1538, Metabolic Activation: NONE, Method: STANDARD PLATE) “inactive; negative”; (Test System: AMES SALMONELLA TYPHIMURIUM, Strain/Indicator: TA1538, Metabolic Activation: RAT, LIVER, S-9, Method: STANDARD PLATE) “inactive; negative”; (Test System: CHINESE HAMSTER OVARY, Strain/Indicator: CHO-K1-BH4 (HGPRT)/6-THIOGUANINE, Metabolic Activation: NONE) “inactive; negative”; (Test System: CHINESE HAMSTER OVARY, Strain/Indicator: CHO-K1-BH4 (HGPRT)/6-THIOGUANINE, Metabolic Activation: RAT, LIVER, S-9, Method: SUSPENSION/PLATE) “inactive; negative”. Moreover, the mutagenic call (Test System: MOUSE LYMPHOMA, Strain/Indicator: L5178Y (TK+/TK-), Metabolic Activation: NONE, Method: SUSPENSION/PLATE) was “inactive; negative”.
